Experiments:
large intestine tissue [1] = assay: relative fluorescence brightness estimated from spectral sensitivity of the confocal microscope; format: in vivo, mouse; details: same dye concentration
Experimental: That is, this function can be used for relative estimation of the fluorescence intensity of each of the samples having different brightness levels.
The fluorescence brightness of a sample with Sodium fluorescein relative to Monascus color (yellow), as calculated on the basis of such spectral sensitivity as to give the same degree of fluorescence brightness, was 0.74 times after 10 minutes or 0.84 times after 60 minutes.

large intestine tissue [2] = assay: staining test by perfusion through the heart of a mouse; format: in vivo; details: 1 mg/mL
Experimental: A staining test was carried out with Monascus color (yellow) (1 mg/mL, 2 mL) by perfusion thereof through the heart of a mouse. […] The permeability of stain by this perfusion staining method was higher than the method in which the excised tissue is stained (Example 2) or the method in which colors are injected through the anus (Example 7). […] That is, the well-stained sites were the same as in Examples 7 and 8.
Sodium fluorescein (1 mg/mL) was also examined in the same manner as in Example 9.

mouse large intestine [3] = assay: mouse large intestine staining test with purified xanthomonasin A, confocal image; format: in vivo; details: 10 mg/mL saline, 100 μL, 5 minutes
Experimental: Using purified xanthomonasin A in Example 10, a mouse large intestine staining test was carried out. A mouse (ddY, 9-week-old, male) was anesthetized, and 100 μL xanthomonasin A (centrifuged and dried sample, 10 mg/mL saline) was injected via an injection needle into the large intestine lumen for staining. After 5 minutes, the mouse large intestine was excised and its confocal image was taken and observed under a confocal microscope (TCS SP2).

mouse large intestine [4] = assay: mouse large intestine staining test with xanthomonasin A, frozen section observation; format: in vivo; details: 10 mg/mL saline, 100 μL, 5 minutes; 6 μm frozen section
Experimental: Purified xanthomonasin A in Example 10 was used in a mouse large intestine staining test and for observing a frozen section. A mouse (ddY, 11-week-old, male) was anesthetized, and 100 μL xanthomonasin A (centrifuged and dried sample, 10 mg/mL saline) was injected via an injection needle into the large intestine lumen for staining. After 5 minutes, the mouse large intestine was excised, frozen and embedded in OCT compound, and the frozen section thus obtained was cut into thin slices each having a thickness of 6 μm. The thin slices were observed by hematoxylin-eosin staining and also observed for fluorescence by staining with xanthomonasin A.

mouse large intestine [5] = assay: mouse large intestine staining with xanthomonasin A, excised after 1 minute and 10 minutes; format: in vivo; details: 1 mg/mL saline, 100 μL
Experimental: Mice (ddY, 9-week-old, male) were anesthetized, and 100 μL xanthomonasin A (centrifuged and dried sample, 1 mg/mL saline) was injected via an injection needle into the large intestine lumen for staining. The mouse large intestines were excised after 1 minute and 10 minutes respectively, and the samples were observed under a confocal microscope (TCS SP2).

| SMILES | fluorescence brightness relative to Monascus color (yellow) (large intestine tissue [1]; after 10 minutes) [times] | fluorescence brightness relative to Monascus color (yellow) (large intestine tissue [1]; after 60 minutes) [times] | staining of cell nuclei (large intestine tissue [2]) | staining of cells constituting the mucosa (large intestine tissue [2]) | staining of mucus components of goblet cells (large intestine tissue [2]) | quality of sectional images (mouse large intestine [3]) | staining of epithelial cells (mouse large intestine [4]) | staining of muscular plate (mouse large intestine [4]) | stained sites, 1 minute versus 10 minutes (mouse large intestine [5]) | visibility (mouse large intestine [5]; stained for 10 minutes) |
| --- | --- | --- | --- | --- | --- | --- | --- | --- | --- | --- |
| O=C([O-])c1ccccc1-c1c2ccc(=O)cc-2oc2cc([O-])ccc12.[Na+].[Na+] [Sodium fluorescein] | 0.74 | 0.84 | could not be judged | many of the cells constituting the mucosal tissue were stained well | not stained | – | – | – | – | – |
| C/C=C/[C@]1(O)Cc2c(oc(O)c2C=O)C2=C(C(=O)CCCCC)C(=O)O[C@@]21C [xanthomonasin A] | – | – | – | – | – | very vivid sectional images were obtained | stained relatively excellently | excellently stained | identical in respect of stained sites | could be further improved |

Reference: patent US20070077202A1, “Histostain composition for endoscope” (PENTAX Corporation, priority 2005, published 2007)
